Values quoted from earlier work, collected in paper PMC7400446, “Antimicrobial and Antifungal Activity of Rare Substituted 1,2,3-Thiaselenazoles and Corresponding Matched Pair 1,2,3-Dithiazoles” (Antibiotics, 2020).
pIC50: −log10 of the molar value. Converted amounts (≈) assume the structure as drawn.

Experiments:
Settings in all cases: cited from earlier work
L1210 = system: L1210; design: method as in PMID 19036587, PMID 23010140, PMID 28709952
K562 = system: K562; design: method as in PMID 19036587, PMID 23010140, PMID 28709952
ASCT2 Transport = system: ASCT2 Transport; design: method as in PMID 19036587, PMID 23010140, PMID 28709952
E. faecalis = system: E. faecalis; design: method as in PMID 19036587, doi:10.1016/0960-894X(96)00062-5, doi:10.1016/0960-894X(96)00423-4, doi:10.1016/S0223-5234(98)80040-8
S. aureus = system: S. aureus; design: method as in PMID 19036587, doi:10.1016/0960-894X(96)00062-5, doi:10.1016/0960-894X(96)00423-4, doi:10.1016/S0223-5234(98)80040-8
L. monocytogenes = system: L. monocytogenes; design: method as in PMID 19036587, doi:10.1016/0960-894X(96)00062-5, doi:10.1016/0960-894X(96)00423-4, doi:10.1016/S0223-5234(98)80040-8
C. neoformans = system: C. neoformans; design: method as in earlier work

| Compound | MIC E. faecalis (E. faecalis) | MIC L. monocytogenes (L. monocytogenes) | MIC C. neoformans (C. neoformans) | other results |
| --- | --- | --- | --- | --- |
| N#Cc1ncn(CCc2ccccc2)c1/N=c1/ssnc1Cl [Compound 2] |  |  |  | pIC50 (L1210): 5.52; pIC50 (K562): 5.40 |
| FC(F)(F)Oc1ccc(/N=c2/ssnc2Cl)cc1Cl [Compound 3] |  |  |  | pIC50 (ASCT2 Transport): 5.09 |
| Clc1nss/c1=N/c1ccccc1 [Compound 4] | 16 µg/mL (≈ 70 µM) | 16 µg/mL (≈ 70 µM) |  | MIC S. aureus (S. aureus): 16 µg/mL (≈ 70 µM) |
| COc1ccccc1/N=c1/ssnc1Cl [Compound 5] | 16 µg/mL (≈ 61.8 µM) | 16 µg/mL (≈ 61.8 µM) |  |  |
| N#Cc1ccccc1/N=c1/ssnc1Cl [Compound 6] |  |  | 8 µg/mL (≈ 31.5 µM) |  |
| COc1ccc(/N=c2/ssnc2Cl)cc1 [Compound 7] |  |  | 8 µg/mL (≈ 30.9 µM) |  |
